Measurements published in patent publication US11684599B2, “Very-long-chain polyunsaturated fatty acids, elovanoid hydroxylated derivatives, and methods of use” (Board of Supervisors of Louisiana State University and …, priority 2017, dated 2023).

How the values were obtained:
[1] = system: rats with fluid percussion injury (FPI); experiment: Traumatic brain injury (fluid percussion injury), neurobehavioral score and MRI; assay type: in vivo; settings: moderate FPI; 1 μg/per rat into subdural space 1 h after TBI; days 1-14; versus CSF
Experimental: FIGS. 23A and 23C: delivery via an intravenous injection; FIG. 23B: delivery via subdural injection. SD rats were subjected to a moderate fluid percussion injury (FPI) model and treated (1 μg/per rat) with 32- and 34 carbon elovanoids as the methyl ester (ME) or sodium salt (Na) (ELV-N32-ME, ELV-N34-ME, ELV-32-Na-d2, ELV-N34-Alkyne) or of vehicle (cerebral spinal fluid; CSF). Treatments were delivered into subdural space at 1 h after TBI. Animals received neurobehavioral examination (normal=0, maximal deficit=12) on days 1, 2, 3, 7 or 14. […] ELV-N34-Alkyne (IV, 300 μg/per animal). All animals received neurobehavioral examination (normal=0, maximal deficit=12) on days 1, 2, 3, 7 or 14.
FIG. 34 is a schematic representation of an experimental protocol for to study the effects of traumatic brain injury through one exemplary model. Briefly, moderate TBI was administered via fluid percussion injury (FPI) to the right parieto-occipital area in male Sprague Dawley rats followed by treatment with elovanoids, behavioral testing, and ex vivo MRI histopathology.
Briefly, Sprague-Dawley rats (280-350 g) were subjected to 4.8 mm craniotomy overlying the right parietal cortex (3.8 mm posterior to bregma and 2.5 mm lateral to midline) was performed 24 hours before fluid percussion injury. A plastic adaptor with a plug was positioned over the craniotomy. […]

[2] = system: rats with middle cerebral artery occlusion (MCAo); experiment: Ex vivo MRI (T2WI) lesion, core and penumbra volumes after MCAo; assay type: in vivo, rat; settings: day 7, compared to CSF-treated group
Experimental: Male Sprague-Dawley rats (Charles River Lab., Wilmington, Mass.) weighing 280-340 g were fasted overnight but allowed free access to water. Atropine sulfate (0.5 mg/kg, i.p.) was injected 10 mins before anesthesia. Anesthesia was induced with 3% isoflurane in a mixture of 70% nitrous oxide and 30% oxygen. All rats were orally intubated and mechanically ventilated. During ventilation, the animals were paralyzed with pancuronium bromide (0.6 mg/kg, i.p.). The catheters were implanted into the right femoral artery and vein for the blood sampling and infusion of drug. Serial analyses of arterial blood gases, plasma glucose, arterial blood pressure and heart beating rate were conducted before and during surgical procedure. Rectal (CMA/150 Temperature Controller, CMA/Microdialysis AB, Stockholm, Sweden) and cranial (temporalis muscle; Omega Engineering, Stamford, Conn.) temperatures were closely monitored before, during and after MCAo. Rectal temperature and body weight were monitored daily until sacrifice.
Rats underwent 2 h of right middle cerebral artery occlusion (MCAo) by an intraluminal-filament. In brief, the right common carotid artery (CCA) bifurcation was exposed through a midline neck incision and the occipital artery branches of the external carotid artery were isolated, ligated and dissected. After careful isolation of the internal carotid artery (ICA), a 3-0 monofilament coated with poly-L-lysine was advanced through the ICA to the MCA until mild resistance was felt. The neck incision was closed with a silk suture and the animals were then allowed to recover. After 2 h of MCAo, rats were re-anesthetized with the same anesthetic combination. Temperature probes were re-inserted, and intraluminal sutures were carefully removed. The animals given free access to food and water for 7 days.
Thirty minutes after suture removal, a brain infusion cannula was implanted into the right lateral ventricle for treatment administration in each rat. Rats were anesthetized with 3% isoflurane and were secured to a stereotaxic apparatus with skull leveled between bregma and lambda. A sterile stainless steel cannula (5-mm long) was implanted into the lateral ventricle using the stereotaxic coordinates (0.2 mm caudal to bregma, 2 mm lateral to midline, and 5 mm below the dura). Cannulas were removed after treatment was completed.
Elovanoids (ELV) as sodium salts (Na) or methyl esters (Me) were dissolved in artificial cerebral spinal fluid (CSF) and administered into right lateral ventricle 1 hour after 2 h of MCAo. The following ELVs were used: ELV-N32-Na, ELV-N32-Me, ELV-N34-Na and ELV-N34-Me (5 μg/[…]) or CSF (50 μl). All treatments were administered by a researcher blinded to the treatment groups. […]

## CC/C=C\C[C@H](O)\C=C/C=C/C=C/[C@H](O)C/C=C\C/C=C\CCCCCCCCCCCCC(=O)OC [ELV-N32-Me, methyl (14Z,17Z,20R,21E,23E,25Z,27S,29Z)-20,27-dihydroxydotriaconta-14,17,21,23,25,29-hexaenoate]
[1]
  neurologic score (normal=0, maximal deficit=12): improved neurologic score
[2]
  reduction of total lesion volume: 56%

## CC/C=C\C[C@H](O)\C=C/C=C/C=C/[C@H](O)C/C=C\C/C=C\CCCCCCCCCCCCC(=O)[O-].[Na+] [ELV-N32-Na, sodium (14Z,17Z,20R,21E,23E,25Z,27S,29Z)-20,27-dihydroxydotriaconta-14,17,21,23,25,29-hexaenoate]
[2]
  reduction of total lesion volume: 60%

## CC/C=C\C[C@H](O)\C=C/C=C/C=C/[C@H](O)C/C=C\C/C=C\CCCCCCCCCCCCCCC(=O)OC [ELV-N34-Me, methyl (16Z,19Z,22R,23E,25E,27Z,29S,31Z)-22,29-dihydroxytetratriaconta-16,19,23,25,27,31-hexaenoate]
[1]
  neurologic score (normal=0, maximal deficit=12): improved neurologic score
[2]
  reduction of total lesion volume: 91%

## CC/C=C\C[C@H](O)\C=C/C=C/C=C/[C@H](O)C/C=C\C/C=C\CCCCCCCCCCCCCCC(=O)[O-].[Na+] [ELV-N34-Na, sodium (16Z,19Z,22R,23E,25E,27Z,29S,31Z)-22,29-dihydroxytetratriaconta-16,19,23,25,27,31-hexaenoate]
[2]
  reduction of total lesion volume: 99%
